Measured values published in ChEMBL document CHEMBL1132852, “Synthesis and structure-activity relationships of 4-oxo-1-phenyl-3,4,6,7-tetrahydro-[1,4]diazepino[6,7,1-hi]indoles: novel PDE4 inhibitors” (Bioorg Med Chem Lett, 2000).
Activity calls are given as the source filed them. The calls are words filed in the database; no cut-off is given here.

How the values were obtained:
[1] = target: Phosphodiesterase, PDE1/PDE5 (Homo sapiens, UniProt O76074+P54750+Q01064+Q14123); test: Inhibitory activity against phosphodiesterase 1/5 (PDE1/5) extracted from guinea pig trachea smooth muscle cells by using radioligands [3H]-cAMP or [3H]cGMP; assay type: tissue-based, Cavia porcellus; conditions: target entry is the homologue from another species
Phosphodiesterase 4 [2] = target: Phosphodiesterase 4 (Homo sapiens, UniProt P27815+Q08499+Q07343+Q08493); test: Inhibition of phosphodiesterase 4 extracted from human U937 cells by using radioligands [3H]-cAMP or [3H]cGMP.; assay type: cell-free; conditions: u-937
Phosphodiesterase 3 = Phosphodiesterase 3 (Homo sapiens, UniProt Q14432+Q13370); test: Inhibition of Phosphodiesterase 3 extracted from dog aorta smooth muscle cells by using radioligands [3H]cAMP or [3H]-cGMP.; parameters: species or system Canis lupus familiaris; conditions: target entry is the homologue from another species
Rattus norvegicus = test: Inhibition of antigen-induced lung eosinophilia in ovalbumin sensitized brown-norway rats after oral administration; assay type: functional
Canis familiaris [3] = test: Emetic effect in dogs administered at 3 mg/kg intravenously (no effect); assay type: functional, organism-based; parameters: dose 3 mg/kg; conditions: Canis lupus familiaris
Phosphodiesterase 4 [4] = target: Phosphodiesterase 4 (Rattus norvegicus, UniProt P14270+P14646+P14644+P54748); test: Displacement of [3H]rolipram from rat brain membrane suspensions; assay type: functional, tissue-based
Canis familiaris [5] = test: Emetic effect in dogs administered at 3 mg/kg intravenously (No effect); assay type: functional, organism-based; parameters: dose 3 mg/kg; conditions: Canis lupus familiaris
Canis familiaris [6] = test: Emetic effect in dogs administered at 0.03 mg/kg intravenously (No effect); assay type: functional, organism-based; parameters: dose 0.03 mg/kg; conditions: Canis lupus familiaris

Row | SMILES | IC50 [1] | IC50 (Phosphodiesterase 4 [2]) | IC50 (Phosphodiesterase 3) | ED50 (Rattus norvegicus) | Activity (Canis familiaris [3]) | IC50 (Phosphodiesterase 4 [4]) | Activity (Canis familiaris [5]) | Activity (Canis familiaris [6])
1 | COc1cc2c3c(c1)C(c1ccccc1)=N[C@@H](NC(=O)c1cc4ccccc4cn1)C(=O)N3CC2 | 65.3 µM | 1.62 µM | 82 µM |  |  |  |  | 
2 | Cc1cc2c3c(c1)C(c1ccccc1)=N[C@@H](NC(=O)c1ccncc1)C(=O)N3CC2 | > 100 µM | 1.14 µM | > 100 µM | 6.9 mg/kg | inactive |  |  | 
3 | O=C(N[C@@H]1N=C(c2ccccc2)c2cccc3c2N(CC3)C1=O)c1cc2ccccc2cn1 | > 100 µM | 4.2 µM | > 100 µM |  |  |  |  | 
4 | O=C(NC1N=C(c2ccccc2)c2ccccc2NC1=O)c1cc2ccccc2[nH]1 (stereo not given) |  | > 100 µM | > 100 µM |  |  |  |  | 
5 | Cc1cc2c3c(c1)C(c1ccccc1)=N[C@@H](NC(=O)c1nnc4cc(C)nn4c1C)C(=O)N3CC2 | > 100 µM | 0.71 µM | > 100 µM |  |  |  |  | 
6 | Cc1cc2c3c(c1)C(c1ccccc1)=N[C@@H](NC(=O)c1ccc(Cl)cc1Cl)C(=O)N3CC2 | > 100 µM | 0.76 µM | 17.5 µM |  |  |  |  | 
7 | O=C(N[C@@H]1N=C(c2ccccc2)c2cccc3c2N(CC3)C1=O)c1cc2ccccc2[nH]1 | > 100 µM | 4 µM | > 100 µM |  |  |  |  | 
8 | O=C(N[C@@H]1N=C(c2ccccc2F)c2cccc3c2N(CC3)C1=O)c1cc2ccccc2[nH]1 |  | > 100 µM | > 100 µM |  |  |  |  | 
9 | O=C(N[C@H]1N=C(c2ccccc2)c2cccc3c2N(CC3)C1=O)c1cc2ccccc2[nH]1 | 100 µM | 100 µM | > 100 µM |  |  |  |  | 
10 | Cc1cc2c3c(c1)C(c1ccccc1)=N[C@@H](NC(=O)c1cc(Cl)c(N)c(Cl)c1)C(=O)N3CC2 | > 100 µM | 0.33 µM | 17.5 µM |  |  |  |  | 
11 | O=C(N[C@@H]1N=C(c2ccccc2)c2cc(O)cc3c2N(CC3)C1=O)c1cc2ccccc2cn1 | > 100 µM | 0.41 µM | > 3.5 µM |  |  |  |  | 
12 | O=C(NC1N=C(c2ccccc2)c2cccc3c2N(CCC3)C1=O)c1cc2ccccc2[nH]1 (stereo not given) | > 100 µM | > 100 µM | > 100 µM |  |  |  |  | 
13 | O=C(NC1N=C(c2ccccc2F)c2cc(Cl)cc3c2N(CC3)C1=O)c1cc2ccccc2[nH]1 (stereo not given) |  | > 100 µM | > 100 µM |  |  |  |  | 
14 | Nc1c(Cl)cc(C(=O)N[C@@H]2N=C(c3ccccc3)c3cccc4c3N(CC4)C2=O)cc1Cl | > 100 µM | 0.63 µM | > 100 µM |  |  |  |  | 
15 | COc1cc2c3c(c1)C(c1ccccc1)=N[C@@H](NC(=O)c1ccc(Cl)cc1)C(=O)N3CC2 | 40 µM | 1.8 µM | 62 µM |  |  |  |  | 
16 | COc1ccccc1C(=O)N[C@@H]1N=C(c2ccccc2)c2cc(C)cc3c2N(CC3)C1=O | 71.7 µM | 0.76 µM | > 100 µM |  |  |  |  | 
17 | COc1cc2c3c(c1)C(c1ccccc1)=N[C@@H](NC(=O)c1cc4ccccc4[nH]1)C(=O)N3CC2 | 100 µM | 0.65 µM | > 100 µM |  |  |  |  | 
18 | Cc1cc2c3c(c1)C(c1ccccc1)=N[C@@H](NC(=O)c1cc4ccccc4cn1)C(=O)N3CC2 | > 100 µM | 2.6 µM | > 100 µM | 10.7 mg/kg |  | > 3 µM | inactive | 
19 | COc1ccc(C(=O)N[C@@H]2N=C(c3ccccc3)c3cc(C)cc4c3N(CC4)C2=O)c(OC)c1 |  | 0.96 µM | 7.85 µM |  |  |  |  | 
20 | Cc1cc2c3c(c1)C(c1ccccc1)=N[C@@H](NC(=O)c1cc(Cl)cc(Cl)c1)C(=O)N3CC2 | > 100 µM | 1.15 µM | 43.7 µM |  |  |  |  | 
21 | COc1ccc(C2CNC(=O)C2)cc1OC1CCCC1 (stereo not given) |  |  |  |  |  |  |  | inactive
22 | Cc1cc2c3c(c1)C(c1ccccc1)=N[C@@H](NC(=O)c1ccc(Cl)cc1)C(=O)N3CC2 | > 100 µM | 1.25 µM | 27 µM |  |  |  |  | 
